Reference: patent publication US8415342B2, “Besifloxacin ophthalmic composition for the treatment or control of infection” (Bausch & Lomb Incorporated, priority 2008, dated 2013)
In brackets after ≈: the same amount, converted by molar mass. Several values for one entry are separate records, joined by “and”; a condition that tells them apart may be missing. Equal values may be shown once. Read-outs that look alike come from different tables or passages of the source.

Experiments:
[1] = Nonclinical ocular and systemic pharmacokinetics after topical ocular administration; type: in vivo; settings: for peak plasma besifloxacin concentration, on average: topical ocular administration
Excerpt: Results from the nonclinical ocular pharmacokinetic (PK) studies indicate that topical ocular administration of besifloxacin ophthalmic suspension, 0.6%, is associated with rapid absorption and distribution of besifloxacin into ocular tissues. […] However, based on the extensive ocular safety data available for besifloxacin, no adverse consequences are expected.
Systemic exposure to besifloxacin following topical ocular administration was low, with peak plasma besifloxacin concentrations of 7.6 and 9.2 ng/mL, respectively, on average.

S. epidermidis = experiment: MIC and MBC:MIC ratio, recent ocular isolates; type: cell-based; settings: S. epidermidis (N = 15); for MIC50 / MIC90: Staphylococcus epidermidis
Excerpt: (§1) The success of in vivo antimicrobial action depends to a large extent on the host's defense mechanisms, which ultimately sequester and kill the microorganisms that have been reduced by the bacteriostatic/bactericidal action of the antibacterial agent. Thus, it is also of interest to profile the bactericidal activity of antimicrobial agents. The assessment of in vitro bactericidal activity can be accomplished in multiple ways, for example, the time-kill method or the determination of the minimum bactericidal concentration (MBC). […] Bactericidal agents are characterized by low MBC:MIC ratios.

H. influenzae [2] = experiment: MIC and MBC:MIC ratio, recent ocular isolates; type: cell-based; settings: H. influenzae (N = 40); for MIC50 / MIC90: Haemophilus influenzae
Excerpt: as §1

H. influenzae [3] = experiment: MIC of clinical trial isolates, Studies 373, 433, 434; type: cell-based; settings: Haemophilus influenzae, isolates of studies 373, 433, 434; read-out: MIC90
Description: (§2) PFGE testing was performed per standard procedures.
(§3) The antibacterial susceptibility profile of each Visit 1 bacterial isolate was determined for besifloxacin and other antimicrobials.

S. pneumoniae = experiment: as above; type: cell-based; settings: Streptococcus pneumoniae, isolates of studies 373, 433, 434; read-out: MIC90
Description: as §2, §3

E. coli topoisomerase IV = E. coli topoisomerase IV (Escherichia coli, UniProt P0AFI2+P20083); experiment: Catalytic inhibition of purified topoisomerase IV; type: biochemical; settings: IC50 Topo IV, E. coli enzymes
S. aureus = experiment: MIC and MBC:MIC ratio, recent ocular isolates; type: cell-based; settings: S. aureus (N = 30); for MIC50 / MIC90: Staphylococcus aureus
[4] = Binding to proteins in human plasma; type: in vitro ADME
Excerpt: The relationship between the concentration of besifloxacin in human tear fluid and the concentration required for antimicrobial activity was quantified by calculating the ratios of Cmax/MIC90 and AUC24/MIC90. For the purpose of calculating these PK/PD ratios, a PK model was used to simulate besifloxacin concentrations with a TID dosing regimen. An additional consideration in this analysis is the potential role of protein binding, which could effectively lower the concentration of unbound (free) besifloxacin. The inhibitory effect of protein binding on antibacterial efficacy has been reported for β-lactams; however, there is no general consensus about the role of protein binding on the antibacterial activity of fluoroquinolones (Bergogne-Berezin, 2002; Craig & Ebert, 1989; Drusano, 1988; Merrikin et al., 1983; Turnidge, 1999; Zeitlinger et al., 2008). […] In order to evaluate the potential theoretical maximum impact of protein binding on besifloxacin activity, Cmax/MIC90 and AUC24/MIC90 ratios were calculated based on the PK estimates for total (bound and free) and free (unbound) besifloxacin (Table 10).

[5] = Predicted PK/PD ratios in tears with simulated TID dosing (Table 10); parameters: species or system human; settings: for Cmax/MIC90, Free / AUC24/MIC90, Free: tears, free besifloxacin (40% bound); for AUC24/MIC90, Free: predicted TID
[6] = system: E. coli topoisomerase mutants; experiment: MIC against defined topoisomerase mutants; type: cell-based; settings: Escherichia coli
Description: Furthermore, an experiment was conducted to assess the mechanism of action of besifloxacin in S. pneumoniae, S. aureus, and E. coli via step selections for isolates with decreased susceptibility to besifloxacin, as well as by testing for altered susceptibilities of ciprofloxacin-resistant variants of all three species containing genetically defined mutations in the quinolone resistance determining regions (QRDRs) of structural genes encoding DNA gyrase and topoisomerase IV (Table 2).

[7] = Systemic exposure after topical ocular administration to humans; settings: human, in vivo, topical or ocular; following topical administration to humans
Excerpt: Topical ophthalmic use of besifloxacin is not expected to elicit any systemic effects.

[8] = Study 424: tear fluid pharmacokinetics after single topical ocular instillation in healthy volunteers; type: in vivo, human
Description: This study was conducted to evaluate the ocular PK of besifloxacin in tear fluid after a single instillation of besifloxacin ophthalmic suspension, 0.6%, in both eyes of healthy volunteers and to compare the actual besifloxacin exposure to MICs of the most prevalent pathogens associated with bacterial conjunctivitis.
Healthy volunteers received a single instillation (37 μL by pipette) of besifloxacin ophthalmic suspension, 0.6%, in the conjunctival sac of each eye. A single tear sample was collected on a Schirmer tear strip from each healthy volunteer. […] Samples were analyzed using a validated LC/MS/MS method, and the LLOQ was 2 ng/mL (equivalent to approximately 0.2 μg/g for a 10-mg tear sample).
Mean tear concentration data were obtained from the per protocol (PP) set and the full analysis (FAS) set. For the purpose of this study, the PP set included all healthy volunteers with the exclusion of apparent outlier values. The FAS set included all healthy volunteers who received besifloxacin, and from whom all sampling data were available (no exclusion of outlier values).

[9] = Staphylococcus aureus (MRSA-CR)
[10] = Staphylococcus aureus (MSSA-CR)
[11] = Staphylococcus aureus (all phenotypes)
[12] = both sexes, human, tear fluid, topical, 37 μL of 0.6% suspension per eye, tears, single instillation 0.6% suspension, healthy volunteers, FAS
[13] = both sexes, human, tear fluid, topical, 37 μL of 0.6% suspension per eye, tears, single instillation 0.6% suspension, healthy volunteers, PP
[14] = tears, single instillation 0.6% suspension, healthy volunteers, FAS

Chain of E. coli topoisomerase IV (P0AFI2 whole entry): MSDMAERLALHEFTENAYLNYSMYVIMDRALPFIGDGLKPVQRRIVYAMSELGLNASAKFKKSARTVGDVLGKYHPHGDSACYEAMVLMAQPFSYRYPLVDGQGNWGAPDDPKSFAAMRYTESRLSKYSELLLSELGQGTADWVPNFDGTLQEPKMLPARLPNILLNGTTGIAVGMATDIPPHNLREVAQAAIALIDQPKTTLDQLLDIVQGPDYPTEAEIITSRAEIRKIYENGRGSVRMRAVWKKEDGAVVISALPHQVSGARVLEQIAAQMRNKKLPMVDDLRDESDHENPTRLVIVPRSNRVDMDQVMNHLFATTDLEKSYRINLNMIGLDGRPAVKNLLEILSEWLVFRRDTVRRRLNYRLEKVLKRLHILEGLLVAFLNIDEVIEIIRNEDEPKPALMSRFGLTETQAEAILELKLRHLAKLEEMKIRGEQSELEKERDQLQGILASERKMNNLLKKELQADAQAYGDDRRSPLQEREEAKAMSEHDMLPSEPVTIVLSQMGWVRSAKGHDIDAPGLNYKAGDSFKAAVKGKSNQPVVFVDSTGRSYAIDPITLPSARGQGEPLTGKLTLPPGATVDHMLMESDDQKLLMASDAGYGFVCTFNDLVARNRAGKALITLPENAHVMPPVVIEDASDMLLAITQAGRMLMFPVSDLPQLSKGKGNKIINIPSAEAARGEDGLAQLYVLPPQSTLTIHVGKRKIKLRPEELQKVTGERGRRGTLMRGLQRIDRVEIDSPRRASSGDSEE
Chain of E. coli topoisomerase IV (P20083 whole entry): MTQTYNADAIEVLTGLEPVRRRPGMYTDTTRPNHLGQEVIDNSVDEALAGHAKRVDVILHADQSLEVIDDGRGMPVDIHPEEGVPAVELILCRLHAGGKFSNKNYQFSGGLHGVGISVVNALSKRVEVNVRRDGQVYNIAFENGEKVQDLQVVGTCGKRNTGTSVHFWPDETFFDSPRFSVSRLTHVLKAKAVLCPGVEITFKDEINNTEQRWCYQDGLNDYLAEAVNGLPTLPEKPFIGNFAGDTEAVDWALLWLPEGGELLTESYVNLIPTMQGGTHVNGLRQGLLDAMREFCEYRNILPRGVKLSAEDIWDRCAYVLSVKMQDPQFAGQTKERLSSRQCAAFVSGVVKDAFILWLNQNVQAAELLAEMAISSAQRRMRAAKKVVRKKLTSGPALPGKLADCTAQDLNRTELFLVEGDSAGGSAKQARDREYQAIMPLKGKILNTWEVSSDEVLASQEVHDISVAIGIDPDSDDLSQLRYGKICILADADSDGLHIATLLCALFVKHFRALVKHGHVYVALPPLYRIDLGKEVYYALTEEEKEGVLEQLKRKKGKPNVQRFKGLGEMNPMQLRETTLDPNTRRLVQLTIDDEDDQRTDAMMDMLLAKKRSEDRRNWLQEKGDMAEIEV

Compound: N[C@@H]1CCCCN(c2c(F)cc3c(=O)c(C(=O)O)cn(C4CC4)c3c2Cl)C1 [Besifloxacin, (R)-(+)-(3-amino-2,3,4,5,6,7-hexahydro-1H-azepin-1-yl)-8-chloro-1-cyclopropyl-6-fluoro-1,4,-dihydro-4-oxo-3-quinolinecarboxylic acid]
- Cmax ([1]; non-excretory organs, topical or ocular, nonclinical, repeated (BID, TID, QID) topical ocular administration): < 25 ng/g
- half-life ([1]; ocular tissues, topical or ocular, nonclinical, topical ocular 0.6% suspension, read-out: apparent half-life of elimination from ocular tissues): > 5 h
- peak plasma besifloxacin concentration, on average ([1]; first of two groups not named ('respectively')): 7.6 ng/mL
- peak plasma besifloxacin concentration, on average ([1]; second of two groups not named ('respectively')): 9.2 ng/mL
- % of isolates with MBC:MIC ratio 1 (S. epidermidis): 73.3%
- % of isolates with MBC:MIC ratio 2 (S. epidermidis): 20.0%
- % of isolates with MBC:MIC ratio 4 (S. epidermidis): 6.7%
- % of isolates with MBC:MIC ratio 8 (S. epidermidis): 0.0%
- % of isolates with MBC:MIC ratio ≧16 (S. epidermidis): 0.0%
- MIC Range (S. epidermidis; recent ocular isolates): 0.015 to 4 µg/mL
- MIC50 (S. epidermidis; recent ocular isolates): 0.03 µg/mL
- MIC90 (S. epidermidis; recent ocular isolates): 4 µg/mL
- % of isolates with MBC:MIC ratio 1 (H. influenzae [2]): 42.5%
- % of isolates with MBC:MIC ratio 2 (H. influenzae [2]): 50.0%
- % of isolates with MBC:MIC ratio 4 (H. influenzae [2]): 7.5%
- % of isolates with MBC:MIC ratio 8 (H. influenzae [2]): 0.0%
- % of isolates with MBC:MIC ratio ≧16 (H. influenzae [2]): 0.0%
- MIC Range (H. influenzae [2]; recent ocular isolates): ≦0.004-0.03 μg/mL
- MIC50 (H. influenzae [2]; recent ocular isolates): 0.015 µg/mL
- MIC90 (H. influenzae [2]; recent ocular isolates): 0.015 µg/mL
- MIC90 (H. influenzae [3]): 0.06 µg/mL
- MIC90 (S. pneumoniae): 0.125 µg/mL
- IC50 (E. coli topoisomerase IV): 23 µM and 25.4 µM
- % of isolates with MBC:MIC ratio 1 (S. aureus): 56.7%
- % of isolates with MBC:MIC ratio 2 (S. aureus): 23.3%
- % of isolates with MBC:MIC ratio 4 (S. aureus): 6.7%
- % of isolates with MBC:MIC ratio 8 (S. aureus): 13.3%
- % of isolates with MBC:MIC ratio ≧16 (S. aureus): 0.0%
- MIC Range (S. aureus; recent ocular isolates): 0.015 to 4 µg/mL
- MIC50 (S. aureus; recent ocular isolates): 0.12 µg/mL
- MIC90 (S. aureus; recent ocular isolates): 4 µg/mL
- bound to proteins in human plasma [4]: approximately 40%
- AUC24/MIC90, Total [5]: 950
- Cmax/MIC90, Free ([5]; Haemophilus influenzae): 6100
- AUC24/MIC90, Free ([5]; Haemophilus influenzae): 38,010
- Cmax/MIC90, Free [5, 9]: 92
- AUC24/MIC90, Free [5, 9]: 570
- Cmax/MIC90, Free [5, 10]: 183
- AUC24/MIC90, Free [5, 10]: 1140
- Cmax/MIC90, Free [5, 11]: 732
- AUC24/MIC90, Free [5, 11]: 4561
- Cmax/MIC90, Free ([5]; Staphylococcus epidermidis): 732
- AUC24/MIC90, Free ([5]; Staphylococcus epidermidis): 4561
- Cmax/MIC90, Free ([5]; Streptococcus pneumoniae): 2928
- AUC24/MIC90, Free ([5]; Streptococcus pneumoniae): 18,245
- Cmax/MIC90, Total ([5]; human): 153
- MIC ([6]; E. coli Wild type): 0.12 µg/mL (≈ 0.305 µM)
- MIC ([6]; E. coli gyrA D87Y (or S83L)): 0.5 µg/mL (≈ 1.27 µM)
- MIC ([6]; E. coli gyrA S83L + parC S80R): 16 µg/mL
- MIC ([6]; E. coli gyrA S83L + parE H445L): 1 µg/mL
- MIC ([6]; E. coli gyrB D426N): 0.5 µg/mL (≈ 1.27 µM)
- Cmax [7]: ~0.4 ng/mL
- concentration at 24 h ([8]; both sexes, human, tear fluid, topical, 37 μL of 0.6% suspension per eye, 0.6% suspension, human tears, read-out: mean concentration in tears at 24 hours (C24h)): 1600 ± 2280 ng/g
- concentration at 24 h ([8]; both sexes, human, tear fluid, topical, 37 μL of 0.6% suspension per eye, after a single dose of 0.6% suspension, humans, read-out: concentration in tears sustained for at least 24 hours): ≥ 1600 ng/g
- Cmax [8, 12]: 610000 ± 540000 ng/g
- Tmax [8, 12]: 0.17 h
- half-life [8, 12]: 3.4 h
- Cmax [8, 13]: 811000 ng/g
- half-life [8, 13]: 3.51 h
- time of mean maximum concentration in tears after instillation ([8]; single instillation, healthy volunteers): ≤ 10 min
- AUC24 [8, 14]: 1232 µg·h/g
- t1/2 [8, 14]: 3.43 h
- AUC24 ([8]; tears, single instillation 0.6% suspension, healthy volunteers, PP): 1523 µg·h/g

Compound: CC[C@H]1OC(=O)[C@H](C)[C@@H](O[C@H]2C[C@@](C)(OC)[C@@H](O)[C@H](C)O2)[C@H](C)[C@@H](O[C@@H]2O[C@H](C)C[C@H](N(C)C)[C@H]2O)[C@](C)(O)C[C@@H](C)CN(C)[C@H](C)[C@@H](O)[C@]1(C)O [Azithromycin]
- % S (susceptible isolates, CLSI) (S. epidermidis; recent ocular isolates): 26.7%
- MIC50 (S. epidermidis; recent ocular isolates): > 8 µg/mL
- MIC90 (S. epidermidis; recent ocular isolates): > 8 µg/mL
- % S (susceptible isolates, CLSI) (H. influenzae [2]; recent ocular isolates): 100.0%
- MIC Range (H. influenzae [2]; recent ocular isolates): ≦0.004-2 μg/mL
- MIC50 (H. influenzae [2]; recent ocular isolates): 0.5 µg/mL
- MIC90 (H. influenzae [2]; recent ocular isolates): 1 µg/mL
- % S (susceptible isolates, CLSI) (S. aureus; recent ocular isolates): 53.3%
- MIC50 (S. aureus; recent ocular isolates): 1 µg/mL
- MIC90 (S. aureus; recent ocular isolates): > 8 µg/mL
